Source: article PMC6591251, “Discovery of potent necroptosis inhibitors targeting RIPK1 kinase activity for the treatment of inflammatory disorder and cancer metastasis” (Cell Death & Disease, 2019)

Tests used:
Test in all cases: RBC kinase panel
Type in all cases: biochemical
Details in all cases: ATP 10 μM, Data1, Data2
YES/YES1 = target: T1, YES/YES1 (Homo sapiens, UniProt P07947)
T1 construct: purchased Reaction Biology Corporation
Outline: (§1)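 Kinases from a 369-member human panel were incubated with 1 μM compound under 10 μM ATP, and every assay was done in duplicate.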

PDGFRa = target: T2, PDGFRa (Homo sapiens, UniProt P16234)
T2 construct: purchased Reaction Biology Corporation
T2 sequence (P16234 24-1089): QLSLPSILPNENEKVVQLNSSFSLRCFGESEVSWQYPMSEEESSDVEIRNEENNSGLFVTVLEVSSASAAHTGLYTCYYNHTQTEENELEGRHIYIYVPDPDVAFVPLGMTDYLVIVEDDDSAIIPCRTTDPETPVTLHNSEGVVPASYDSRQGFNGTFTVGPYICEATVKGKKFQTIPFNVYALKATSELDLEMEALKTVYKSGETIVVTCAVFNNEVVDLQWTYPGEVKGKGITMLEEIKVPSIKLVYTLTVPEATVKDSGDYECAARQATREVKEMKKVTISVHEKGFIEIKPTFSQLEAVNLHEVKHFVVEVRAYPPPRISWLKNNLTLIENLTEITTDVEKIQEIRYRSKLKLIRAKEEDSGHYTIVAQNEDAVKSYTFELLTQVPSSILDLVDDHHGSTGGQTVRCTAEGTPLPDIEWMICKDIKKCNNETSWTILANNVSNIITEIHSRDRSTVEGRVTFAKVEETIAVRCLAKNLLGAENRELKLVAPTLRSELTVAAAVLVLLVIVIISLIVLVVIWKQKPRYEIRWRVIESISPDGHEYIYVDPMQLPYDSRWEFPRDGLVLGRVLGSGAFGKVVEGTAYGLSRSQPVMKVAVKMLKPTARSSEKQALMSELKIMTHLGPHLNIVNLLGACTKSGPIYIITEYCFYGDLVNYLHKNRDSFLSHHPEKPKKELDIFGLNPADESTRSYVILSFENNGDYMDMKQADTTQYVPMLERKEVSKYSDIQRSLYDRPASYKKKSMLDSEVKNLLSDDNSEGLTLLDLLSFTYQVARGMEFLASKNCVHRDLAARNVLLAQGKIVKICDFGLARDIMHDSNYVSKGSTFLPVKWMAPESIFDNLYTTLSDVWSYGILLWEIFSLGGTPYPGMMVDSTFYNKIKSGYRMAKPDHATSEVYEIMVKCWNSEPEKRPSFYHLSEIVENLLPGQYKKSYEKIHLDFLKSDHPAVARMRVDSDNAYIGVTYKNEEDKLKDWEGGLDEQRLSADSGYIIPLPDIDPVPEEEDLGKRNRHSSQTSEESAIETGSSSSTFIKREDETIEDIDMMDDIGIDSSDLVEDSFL
Outline: as §1

CDK4/cyclin D1 = target: T3, CDK4/cyclin D1 (Homo sapiens, UniProt P11802)
T3 construct: purchased Reaction Biology Corporation
Outline: as §1

SRMS = target: T4, SRMS (Homo sapiens, UniProt Q9H3Y6)
T4 construct: purchased Reaction Biology Corporation
Outline: as §1

TXK = target: T5, TXK (Homo sapiens, UniProt P42681)
T5 construct: purchased Reaction Biology Corporation
Outline: as §1

ERN2/IRE2 = target: T6, ERN2/IRE2 (Homo sapiens, UniProt Q76MJ5)
T6 construct: purchased Reaction Biology Corporation
Outline: as §1

FES/FPS = target: T7, FES/FPS (Homo sapiens, UniProt P07332)
T7 construct: purchased Reaction Biology Corporation
Outline: as §1

CLK1 = target: T8, CLK1 (Homo sapiens, UniProt P49759)
T8 construct: purchased Reaction Biology Corporation
T8 sequence (P49759 whole entry): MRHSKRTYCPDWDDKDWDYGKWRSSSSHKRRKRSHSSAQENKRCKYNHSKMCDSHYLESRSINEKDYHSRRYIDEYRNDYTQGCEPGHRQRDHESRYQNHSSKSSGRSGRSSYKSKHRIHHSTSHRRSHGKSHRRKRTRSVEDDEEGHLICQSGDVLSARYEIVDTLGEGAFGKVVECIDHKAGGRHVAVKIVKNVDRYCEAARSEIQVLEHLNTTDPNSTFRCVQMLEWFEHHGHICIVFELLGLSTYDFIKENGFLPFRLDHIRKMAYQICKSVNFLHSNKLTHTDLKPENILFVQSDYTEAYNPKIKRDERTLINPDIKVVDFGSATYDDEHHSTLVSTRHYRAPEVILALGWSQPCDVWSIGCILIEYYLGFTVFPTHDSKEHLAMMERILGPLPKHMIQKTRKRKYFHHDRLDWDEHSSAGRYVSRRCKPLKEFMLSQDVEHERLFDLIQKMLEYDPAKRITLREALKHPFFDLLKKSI
Outline: as §1

STK33 = target: T9, STK33 (Homo sapiens, UniProt Q9BYT3)
T9 construct: purchased Reaction Biology Corporation
T9 sequence (Q9BYT3 whole entry): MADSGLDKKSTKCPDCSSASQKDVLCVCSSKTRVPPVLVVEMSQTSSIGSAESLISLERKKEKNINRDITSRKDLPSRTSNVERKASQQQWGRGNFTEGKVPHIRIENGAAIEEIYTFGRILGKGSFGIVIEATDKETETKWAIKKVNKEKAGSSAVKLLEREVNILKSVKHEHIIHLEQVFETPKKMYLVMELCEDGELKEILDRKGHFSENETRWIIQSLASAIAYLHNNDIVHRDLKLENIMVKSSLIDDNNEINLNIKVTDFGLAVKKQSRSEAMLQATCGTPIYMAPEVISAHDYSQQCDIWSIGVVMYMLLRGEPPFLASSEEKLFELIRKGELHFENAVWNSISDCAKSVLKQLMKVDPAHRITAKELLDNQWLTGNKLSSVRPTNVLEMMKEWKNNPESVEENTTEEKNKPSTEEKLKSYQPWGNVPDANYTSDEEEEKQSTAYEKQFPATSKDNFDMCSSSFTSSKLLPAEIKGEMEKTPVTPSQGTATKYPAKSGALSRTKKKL
Outline: as §1

DYRK2 = target: T10, DYRK2 (Homo sapiens, UniProt Q92630)
T10 construct: purchased Reaction Biology Corporation
Outline: as §1

PRKX = target: T11, PRKX (Homo sapiens, UniProt P51817)
T11 construct: purchased Reaction Biology Corporation
Outline: as §1

PIM1 = target: T12, PIM1 (Homo sapiens, UniProt P11309)
T12 construct: purchased Reaction Biology Corporation
Outline: as §1

EPHA5 = target: T13, EPHA5 (Homo sapiens, UniProt P54756)
T13 construct: purchased Reaction Biology Corporation
Outline: as §1

CDK9/cyclin K = target: T14, CDK9/cyclin K (Homo sapiens, UniProt P50750)
T14 construct: purchased Reaction Biology Corporation
Outline: as §1

HGK/MAP4K4 = target: T15, HGK/MAP4K4 (Homo sapiens, UniProt O95819)
T15 construct: purchased Reaction Biology Corporation
T15 sequence (O95819 whole entry): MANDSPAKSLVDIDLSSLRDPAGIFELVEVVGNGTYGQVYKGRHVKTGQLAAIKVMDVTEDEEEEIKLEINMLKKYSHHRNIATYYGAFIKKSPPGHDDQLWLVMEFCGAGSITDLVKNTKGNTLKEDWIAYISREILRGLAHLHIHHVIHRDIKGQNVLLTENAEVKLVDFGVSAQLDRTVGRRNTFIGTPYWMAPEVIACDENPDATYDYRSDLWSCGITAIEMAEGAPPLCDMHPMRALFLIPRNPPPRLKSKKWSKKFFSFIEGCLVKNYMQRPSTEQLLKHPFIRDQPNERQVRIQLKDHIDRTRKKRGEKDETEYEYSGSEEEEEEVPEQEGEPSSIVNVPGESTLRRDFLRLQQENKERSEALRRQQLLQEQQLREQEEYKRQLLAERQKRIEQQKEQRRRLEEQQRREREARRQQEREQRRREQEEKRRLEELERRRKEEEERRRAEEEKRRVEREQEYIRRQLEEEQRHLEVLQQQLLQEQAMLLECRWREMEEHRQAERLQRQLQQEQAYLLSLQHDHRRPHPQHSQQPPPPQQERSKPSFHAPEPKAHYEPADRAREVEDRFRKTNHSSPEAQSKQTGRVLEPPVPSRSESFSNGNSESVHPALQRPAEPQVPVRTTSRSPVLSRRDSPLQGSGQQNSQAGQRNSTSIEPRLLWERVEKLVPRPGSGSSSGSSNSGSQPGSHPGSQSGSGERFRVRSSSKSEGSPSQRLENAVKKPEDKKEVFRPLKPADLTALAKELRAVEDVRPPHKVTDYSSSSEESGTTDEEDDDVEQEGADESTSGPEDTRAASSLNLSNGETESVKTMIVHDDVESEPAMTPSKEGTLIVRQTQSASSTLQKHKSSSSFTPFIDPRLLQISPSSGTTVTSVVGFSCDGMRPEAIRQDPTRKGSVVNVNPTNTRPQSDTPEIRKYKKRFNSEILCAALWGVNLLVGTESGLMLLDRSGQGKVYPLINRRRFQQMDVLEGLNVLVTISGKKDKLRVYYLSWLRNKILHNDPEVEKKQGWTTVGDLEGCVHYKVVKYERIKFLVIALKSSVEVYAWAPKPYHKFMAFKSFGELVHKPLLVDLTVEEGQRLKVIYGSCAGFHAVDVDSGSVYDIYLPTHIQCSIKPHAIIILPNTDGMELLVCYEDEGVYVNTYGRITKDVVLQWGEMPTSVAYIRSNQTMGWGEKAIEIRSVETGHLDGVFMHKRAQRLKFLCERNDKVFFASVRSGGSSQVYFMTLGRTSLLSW
Outline: as §1

EPHB3 = target: T16, EPHB3 (Homo sapiens, UniProt P54753)
T16 construct: purchased Reaction Biology Corporation
Outline: as §1

CDK14/cyclin Y (PFTK1) = target: T17, CDK14/cyclin Y (PFTK1) (Homo sapiens, UniProt O94921)
T17 construct: purchased Reaction Biology Corporation
Outline: as §1

NEK3 = target: T18, NEK3 (Homo sapiens, UniProt P51956)
T18 construct: purchased Reaction Biology Corporation
Outline: as §1

CDK4/cyclin D3 = target: T19, CDK4/cyclin D3 (Homo sapiens, UniProt P11802)
T19 construct: purchased Reaction Biology Corporation
Outline: as §1

PKN2/PRK2 = target: T20, PKN2/PRK2 (Homo sapiens, UniProt Q16513)
T20 construct: purchased Reaction Biology Corporation
Outline: as §1

ULK3 = target: T21, ULK3 (Homo sapiens, UniProt Q6PHR2)
T21 construct: purchased Reaction Biology Corporation
T21 sequence (Q6PHR2 whole entry): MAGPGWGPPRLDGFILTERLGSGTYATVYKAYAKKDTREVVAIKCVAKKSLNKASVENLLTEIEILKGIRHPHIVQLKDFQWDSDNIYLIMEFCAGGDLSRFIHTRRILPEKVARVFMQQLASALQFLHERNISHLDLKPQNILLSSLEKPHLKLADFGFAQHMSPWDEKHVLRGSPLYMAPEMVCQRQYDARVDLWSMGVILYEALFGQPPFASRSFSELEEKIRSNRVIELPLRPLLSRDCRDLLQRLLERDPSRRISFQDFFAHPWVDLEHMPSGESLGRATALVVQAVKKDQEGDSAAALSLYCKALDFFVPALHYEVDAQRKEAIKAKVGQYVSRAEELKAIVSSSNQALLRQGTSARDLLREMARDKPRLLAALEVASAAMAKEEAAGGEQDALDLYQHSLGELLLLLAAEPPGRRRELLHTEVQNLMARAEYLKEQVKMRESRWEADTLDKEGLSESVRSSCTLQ
Outline: as §1

BLK = target: T22, BLK (Homo sapiens, UniProt P51451)
T22 construct: purchased Reaction Biology Corporation
Outline: as §1

BMX/ETK = target: T23, BMX/ETK (Homo sapiens, UniProt P51813)
T23 construct: purchased Reaction Biology Corporation
Outline: as §1

FLT4/VEGFR3 = target: T24, FLT4/VEGFR3 (Homo sapiens, UniProt P35916)
T24 construct: purchased Reaction Biology Corporation
Outline: as §1

MNK2 = target: T25, MNK2 (Homo sapiens, UniProt Q9HBH9)
T25 construct: purchased Reaction Biology Corporation
Outline: as §1

CAMK1d = target: T26, CAMK1d (Homo sapiens, UniProt Q8IU85)
T26 construct: purchased Reaction Biology Corporation
T26 sequence (Q8IU85 whole entry): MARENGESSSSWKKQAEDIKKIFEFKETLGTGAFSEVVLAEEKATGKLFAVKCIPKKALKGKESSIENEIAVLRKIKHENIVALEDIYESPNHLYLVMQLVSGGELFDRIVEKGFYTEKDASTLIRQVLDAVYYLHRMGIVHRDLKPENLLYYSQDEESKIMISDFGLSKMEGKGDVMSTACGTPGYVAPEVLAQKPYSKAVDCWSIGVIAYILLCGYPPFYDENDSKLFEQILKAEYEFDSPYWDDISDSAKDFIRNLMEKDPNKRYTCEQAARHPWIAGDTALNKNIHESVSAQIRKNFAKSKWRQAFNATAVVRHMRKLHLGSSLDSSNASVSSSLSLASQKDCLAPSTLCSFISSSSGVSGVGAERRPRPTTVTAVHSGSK
Outline: as §1

SGK1 = target: T27, SGK1 (Homo sapiens, UniProt O00141)
T27 construct: purchased Reaction Biology Corporation
Outline: as §1

DDR1 = target: T28, DDR1 (Homo sapiens, UniProt Q08345)
T28 construct: purchased Reaction Biology Corporation
Outline: as §1

MSK2/RPS6KA4 = target: T29, MSK2/RPS6KA4 (Homo sapiens, UniProt O75676)
T29 construct: purchased Reaction Biology Corporation
Outline: as §1

CDK1/cyclin E = target: T30, CDK1/cyclin E (Homo sapiens, UniProt P06493)
T30 construct: purchased Reaction Biology Corporation
Outline: as §1

IGF1R = target: T31, IGF1R (Homo sapiens, UniProt P08069)
T31 construct: purchased Reaction Biology Corporation
Outline: as §1

ALK = target: T32, ALK (Homo sapiens, UniProt Q9UM73)
T32 construct: purchased Reaction Biology Corporation
Outline: as §1

Aurora C = target: T33, Aurora C (Homo sapiens, UniProt Q9UQB9)
T33 construct: purchased Reaction Biology Corporation
T33 sequence (Q9UQB9 whole entry): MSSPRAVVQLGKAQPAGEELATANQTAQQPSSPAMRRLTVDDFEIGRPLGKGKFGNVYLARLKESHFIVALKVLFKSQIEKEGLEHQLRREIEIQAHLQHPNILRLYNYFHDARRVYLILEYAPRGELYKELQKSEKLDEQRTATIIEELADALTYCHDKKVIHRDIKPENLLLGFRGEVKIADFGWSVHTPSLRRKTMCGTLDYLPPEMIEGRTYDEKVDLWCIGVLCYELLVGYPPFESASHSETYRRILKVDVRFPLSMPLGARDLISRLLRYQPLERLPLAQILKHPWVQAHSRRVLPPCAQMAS
Outline: as §1

T1 sequence (P07947 whole entry): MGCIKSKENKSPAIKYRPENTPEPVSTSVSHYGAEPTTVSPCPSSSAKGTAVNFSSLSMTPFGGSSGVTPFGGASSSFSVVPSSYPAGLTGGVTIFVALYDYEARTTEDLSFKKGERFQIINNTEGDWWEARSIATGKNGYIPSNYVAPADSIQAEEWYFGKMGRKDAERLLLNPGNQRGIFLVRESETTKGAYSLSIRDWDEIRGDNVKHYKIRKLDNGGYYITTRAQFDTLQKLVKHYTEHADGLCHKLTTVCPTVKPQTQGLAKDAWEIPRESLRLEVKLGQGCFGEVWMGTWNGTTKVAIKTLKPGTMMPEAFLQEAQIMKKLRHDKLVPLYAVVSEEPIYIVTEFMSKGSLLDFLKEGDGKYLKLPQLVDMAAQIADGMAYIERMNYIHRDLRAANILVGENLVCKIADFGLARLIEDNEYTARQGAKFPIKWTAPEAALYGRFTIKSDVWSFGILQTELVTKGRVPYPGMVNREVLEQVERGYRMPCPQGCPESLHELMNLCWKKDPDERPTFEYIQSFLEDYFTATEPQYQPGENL

Molecule `CC(=O)Nc1nc2ccc(-c3cnc(C)c(NC(=O)OC4CCCCC4)c3)cc2s1` [PK68, cyclohexyl (5-(2-acetamidobenzo[d]thiazol-6-yl)-2-methylpyridin-3-yl)carbamate] has an Activity% (YES/YES1; 1 μM) of 87.91%, an activity at 1 µM (YES/YES1) of 89.2% and an Activity% (PDGFRa; 1 μM) of 83.70%. The activity at 1 µM (PDGFRa) was 84.1%, the Activity% (CDK4/cyclin D1; 1 μM) was 88.58% and the activity at 1 µM (CDK4/cyclin D1) was 88.8%. It also gave an Activity% (SRMS; 1 μM) of 97.95%, an activity at 1 µM (SRMS) of 99.7% and an Activity% (TXK; 1 μM) of 99.58%. The activity at 1 µM (TXK) was 101%, the Activity% (ERN2/IRE2; 1 μM) was 92.56% and the activity at 1 µM (ERN2/IRE2) was 93.1%. For the same molecule, the Activity% (FES/FPS; 1 μM) was 96.80%, the activity at 1 µM (FES/FPS) was 96.9% and the Activity% (CLK1; 1 μM) was 80.72%. For the same molecule, the activity at 1 µM (CLK1) was 81.9%, the Activity% (STK33; 1 μM) was 91.58% and the activity at 1 µM (STK33) was 91.6%. It also gave an Activity% (DYRK2; 1 μM) of 85.35%, an activity at 1 µM (DYRK2) of 86.3% and an Activity% (PRKX; 1 μM) of 103.46%. It also gave an activity at 1 µM (PRKX) of 104%, an Activity% (PIM1; 1 μM) of 100.16% and an activity at 1 µM (PIM1) of 102%. It also gave an Activity% (EPHA5; 1 μM) of 100.43%, an activity at 1 µM (EPHA5) of 102% and an Activity% (CDK9/cyclin K; 1 μM) of 104.96%. The activity at 1 µM (CDK9/cyclin K) was 106%, the Activity% (HGK/MAP4K4; 1 μM) was 82.64% and the activity at 1 µM (HGK/MAP4K4) was 84.4%. It also gave an Activity% (EPHB3; 1 μM) of 98.23%, an activity at 1 µM (EPHB3) of 98.8% and an Activity% (CDK14/cyclin Y (PFTK1); 1 μM) of 96.97%. It also gave an activity at 1 µM (CDK14/cyclin Y (PFTK1)) of 97.4%, an Activity% (NEK3; 1 μM) of 116.50% and an activity at 1 µM (NEK3) of 119%. The Activity% (CDK4/cyclin D3; 1 μM) was 93.75%, the activity at 1 µM (CDK4/cyclin D3) was 94.2% and the Activity% (PKN2/PRK2; 1 μM) was 62.44%. The activity at 1 µM (PKN2/PRK2) was 62.6%, the Activity% (ULK3; 1 μM) was 92.16% and the activity at 1 µM (ULK3) was 92.9%. For the same molecule, the Activity% (BLK; 1 μM) was 93.58%, the activity at 1 µM (BLK) was 95.4% and the Activity% (BMX/ETK; 1 μM) was 99.71%. For the same molecule, the activity at 1 µM (BMX/ETK) was 99.9%, the Activity% (FLT4/VEGFR3; 1 μM) was 90.37% and the activity at 1 µM (FLT4/VEGFR3) was 91%. The Activity% (MNK2; 1 μM) was 88.77%, the activity at 1 µM (MNK2) was 90.5% and the Activity% (CAMK1d; 1 μM) was 100.76%. The activity at 1 µM (CAMK1d) was 103%, the Activity% (SGK1; 1 μM) was 93.47% and the activity at 1 µM (SGK1) was 93.8%. The Activity% (DDR1; 1 μM) was 80.91%, the activity at 1 µM (DDR1) was 81.7% and the Activity% (MSK2/RPS6KA4; 1 μM) was 106.42%. It also gave an activity at 1 µM (MSK2/RPS6KA4) of 107%, an Activity% (CDK1/cyclin E; 1 μM) of 101.92% and an activity at 1 µM (CDK1/cyclin E) of 102%. The Activity% (IGF1R; 1 μM) was 103.88%, the activity at 1 µM (IGF1R) was 104% and the Activity% (ALK; 1 μM) was 94.03%. The activity at 1 µM (ALK) was 96.1%, the Activity% (Aurora C; 1 μM) was 92.22% and the activity at 1 µM (Aurora C) was 94.1%.
